Test results from patent US20250367343A1, “CLINICAL DRESSING LOADED WITH COFFEE EXTRACT” (KING SAUD UNIVERSITY, priority 2024, published 2025).

The compounds below were run on methicillin-resistant Staphylococcus aureus (ATCC 43300) (assay: Standard antibiotic sensitivity test using the Vitek-2 system). Conditions: strain ATCC 43300.
Format: cell-based

Compound | antibiotic sensitivity of the MRSA strain
CC1(C)S[C@@H]2[C@H](NC(=O)[C@H](N)c3ccccc3)C(=O)N2[C@H]1C(=O)O [ampicillin] | resistant
CC1(C)S[C@@H]2[C@H](NC(=O)Cc3ccccc3)C(=O)N2[C@H]1C(=O)O [penicillin G] | resistant
CO[C@@]1(NC(=O)Cc2cccs2)C(=O)N2C(C(=O)O)=C(COC(N)=O)CS[C@@H]21 [cefoxitin] | resistant
amoxicillin-alavulanate | resistant
Cc1onc(-c2ccccc2)c1C(=O)N[C@@H]1C(=O)N2[C@@H]1SC(C)(C)[C@@H]2C(=O)O [oxacillin] | resistant
